# Source: PubChem BioAssay (NCI)
#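 Values below derive from 48-hour exposures of cells grown in 96-well plates, with endpoints linearly interpolated between the two concentrations bracketing the appropriate inhibition level. The concentration for 50% growth inhibition is given as GI50. TGI is the concentration that stops growth completely.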
# Experiments:
# Experiment in all cases: NCI tumour cell line growth inhibition, 48 h
# T-47D breast = tested on: T-47D breast
# DMS 114 small cell lung = tested on: DMS 114 small cell lung
# DMS 273 small cell lung = tested on: DMS 273 small cell lung
# SNB-78 CNS = tested on: SNB-78 CNS
# MCF7 breast = tested on: MCF7 breast
# BT-549 breast = tested on: BT-549 breast
# XF 498 CNS = tested on: XF 498 CNS
# MDA-N = tested on: MDA-N
# RXF-631 renal = tested on: RXF-631 renal
SMILES,GI50 (T-47D breast) [µM],TGI (T-47D breast) [µM],GI50 (MCF7 breast) [µM],TGI (MCF7 breast) [µM],GI50 (BT-549 breast) [µM],TGI (BT-549 breast) [µM],other results
CC(=O)C1CCC2C3CC=C4CC(SC(=N)N)CCC4(C)C3CCC12C (stereo not drawn),2.02,4.85,,,,,
COc1cc2c(cc1OC)c1c(OC)c(OC)cc3c1c1c2sc(=S)n1CC3,,,,,,,TGI (DMS 114 small cell lung): 98.1 µM; TGI (DMS 273 small cell lung): > 100 µM; TGI (SNB-78 CNS): > 100 µM
O=S(=O)(Nc1ccc2ccccc2c1)c1ccc(-c2cnc(C3CC3)o2)cc1,1.01,58.3,0.478,25,2.81,19.3,
COc1ccc2c(c1)N(CCO)C1=C(C(=O)OC1)C2c1ccccc1 (stereo not drawn),,,1.86,> 50,4.03,> 50,
CC1=C2[C@H](c3ccccc3)C3C=CC2(c2ccccc23)N(C(=O)C(c2ccccc2)c2ccccc2)C1=O (stereo partly drawn),,,,,,,TGI (DMS 114 small cell lung): > 100 µM; TGI (DMS 273 small cell lung): > 100 µM; TGI (XF 498 CNS): > 100 µM
C1CCN2CC3CCCN4CCCC(C2C1)C34 (stereo not drawn),,> 100,,> 100,,> 100,TGI (MDA-N): > 100 µM
N#Cc1c(N)nc(N2CCSCC2)c(C#N)c1-c1ccc(O)cc1,12.8,85.8,14.1,40.2,23.3,98,
CCCCCCCCCOC(=S)NCCCCC,,,,,,,TGI (DMS 114 small cell lung): 47.4 µM; TGI (DMS 273 small cell lung): 58.3 µM; TGI (SNB-78 CNS): > 100 µM
COC(=O)C1=C(O)[C@H](C(=O)OC)[C@]2(O)[C@@H](C(=O)OC)[C@H]1C[C@@H](c1ccc(OC(=O)/C=C/c3ccco3)cc1)[C@@H]2C(=O)OC,> 100,> 100,40.5,> 100,22.5,49.4,
O=C(Nc1cccnc1)c1ccc2ccc3ccc(C(=O)Nc4cccnc4)nc3c2n1,0.257,> 100,0.137,> 100,,,
CCC[CH2][Sn]([CH2]CCC)([O]C(=O)c1cc(F)cc(F)c1)[O][Sn]([CH2]CCC)([CH2]CCC)[O]C(=O)c1cc(F)cc(F)c1,,,,,,,GI50 (DMS 114 small cell lung): 0.379 µM; TGI (DMS 114 small cell lung): 1.53 µM; GI50 (DMS 273 small cell lung): 1.23 µM; TGI (DMS 273 small cell lung): 2.47 µM; GI50 (XF 498 CNS): 1.4 µM; TGI (XF 498 CNS): 2.71 µM; GI50 (SNB-78 CNS): 0.584 µM; TGI (SNB-78 CNS): 2.29 µM
CCN(CC)CC(C)(C)C(=O)/C=C/c1ccc(/C=C/C(=O)C(C)(C)CN(CC)CC)cc1,,3.21,,,,,TGI (DMS 114 small cell lung): 0.876 µM; TGI (XF 498 CNS): 1.03 µM; TGI (MDA-N): 1.66 µM; TGI (SNB-78 CNS): 4.64 µM
CSc1ccc(C2=NN(C(C)=O)C(c3ccc(F)cc3)C2)cc1 (stereo not drawn),11.5,41.4,17.2,41.3,20.3,40.2,
CC(=O)O[C@H]1C(=O)[C@@]2(C)[C@H]([C@H](OC(=O)c3ccccc3)[C@@]3(O)C[C@H](O)C(C)=C1C3(C)C)[C@]1(OC(C)=O)CO[C@@H]1C[C@@H]2O,,> 100,,> 100,,> 100,TGI (MDA-N): 17.1 µM
COc1cc(-c2ccc(NC(=O)NC3CC3)c(OC)c2)ccc1NC(=O)NC1CC1,> 100,> 100,5.69,> 100,2.67,27.2,
C/C=C(/C)C(=O)OC1C=C(CO)C(=O)C(OC(=O)C(C)(O)C(C)Cl)C1C(C)C (stereo not drawn),,,0.552,3.09,1.95,4.71,

SMILES,GI50 (T-47D breast) [µM],TGI (T-47D breast) [µM],GI50 (MCF7 breast) [µM],TGI (MCF7 breast) [µM],GI50 (BT-549 breast) [µM],TGI (BT-549 breast) [µM],other results
COc1ccc(CNc2cnc3cc(N)cc(N)c3n2)cc1,73.8,> 100,37.5,> 100,17.8,37.5,
CC[C@]12C=CCN3CC[C@@]4(c5ccc(OC)cc5N(C)[C@H]4[C@@](O)(C(=O)OC)[C@@H]1OC(=O)CCC(=O)N[C@H](Cc1c[nH]c4ccccc14)C(=O)OC)[C@@H]32,11,30.3,2.98,16.1,7.68,41,
COC(=O)C(=O)C(C(=O)C(=O)Nc1ccc(C)cc1)c1nc2ccc(C(=O)c3ccccc3)cc2[nH]c1=O (stereo not drawn),,> 100,,,,> 100,TGI (MDA-N): > 100 µM
COC(=O)c1ccc2c(c1)c1c(C)c3ccncc3c(C)c1n2C,0.661,> 100,0.267,1.77,0.925,36.2,
CC1=NN(C(=O)c2ccc(Cl)cc2)C(=O)/C1=C/c1ccco1,,,,,,,TGI (DMS 114 small cell lung): > 100 µM; TGI (XF 498 CNS): > 100 µM; TGI (SNB-78 CNS): > 100 µM
CC1CCc2c(c(CC3CC(=O)NC(=O)C3)nn2-c2ccccc2)C1 (stereo not drawn),,> 100,,> 100,,> 100,TGI (MDA-N): > 100 µM
CC1=NN(C(=O)c2ccncc2)C(=O)C1N=Nc1ccc2ccccc2c1 (stereo not drawn),,> 100,,> 100,,> 100,TGI (MDA-N): 10.2 µM
CCc1nc2cc(/C=C/C(=O)NO)ccc2c(=O)n1CCc1ccc(F)cc1,0.629,6.23,1.31,> 100,2.84,9.14,
CCOC(=O)c1c2cccccc2n2c(=O)cc(C)nc12,,,,,,,TGI (DMS 273 small cell lung): > 100 µM; TGI (SNB-78 CNS): > 100 µM
CO[C@@H]1[C@H]2[C@@H](C)c3ccoc3C[C@@H]2[C@@]2(C)CC[C@H](OC(=O)c3ccccc3)[C@](C)(C(=O)O)[C@]2(O)[C@@H]1OC(=O)c1ccccc1,,,17.4,> 50,8.99,29.7,
O=C(c1ccccc1)c1c(CC(O)c2ccccc2)n(C(=O)c2ccccc2)c2ccccc12 (stereo not drawn),,,,,,,TGI (DMS 114 small cell lung): > 100 µM; TGI (DMS 273 small cell lung): > 100 µM; TGI (XF 498 CNS): > 100 µM
CC(CCCC1SCC2NC(=O)NC21)C(=O)O (stereo not drawn),,> 100,,> 100,,> 100,TGI (MDA-N): > 100 µM
COc1ccc(/C=C2\CC(C)CC3C2=NN(c2ccccc2)C3c2ccc(OC)c(OC)c2)cc1OC (stereo not drawn),4.48,> 100,3.23,42.6,4.58,79.7,
O=C(Nc1nc(-c2ccc(Cl)cc2)nc2c1sc(=S)n2-c1ccccc1)C(F)(F)F,2.05,5.05,10.2,> 100,6.37,38.2,
COC(=O)C(=O)C(C(=O)C=C(C)C)C(=O)C(=O)Nc1nc2ccc([N+](=O)[O-])cc2s1 (stereo not drawn),,,,,,,TGI (DMS 114 small cell lung): > 100 µM; TGI (DMS 273 small cell lung): > 100 µM; TGI (SNB-78 CNS): > 100 µM
Cc1ccc(NC(=O)CC/C(CC(=O)C(C)(C)C)=N\Nc2ccc([N+](=O)[O-])cc2[N+](=O)[O-])cc1C,,,,,,,TGI (DMS 114 small cell lung): > 100 µM; TGI (SNB-78 CNS): > 100 µM; TGI (RXF-631 renal): > 100 µM
